# Assays:
# ForI [1] = target: T1, ForI (Streptomyces kaniharaensis, UniProt A0A5S8ZI02); assay: UV-vis, mass spectrometry and crystal structure of the adduct; type: binding; settings: covalent; reacts at PLP, bound species is the PMP-diketopiperazine adduct; 10 mM, pH 8, 4 °C
# T1 construct: gene cof17; homodimer, active site from both monomers; residues 3 to 417 located in crystal
# T1 sequence (A0A5S8ZI02 1-423): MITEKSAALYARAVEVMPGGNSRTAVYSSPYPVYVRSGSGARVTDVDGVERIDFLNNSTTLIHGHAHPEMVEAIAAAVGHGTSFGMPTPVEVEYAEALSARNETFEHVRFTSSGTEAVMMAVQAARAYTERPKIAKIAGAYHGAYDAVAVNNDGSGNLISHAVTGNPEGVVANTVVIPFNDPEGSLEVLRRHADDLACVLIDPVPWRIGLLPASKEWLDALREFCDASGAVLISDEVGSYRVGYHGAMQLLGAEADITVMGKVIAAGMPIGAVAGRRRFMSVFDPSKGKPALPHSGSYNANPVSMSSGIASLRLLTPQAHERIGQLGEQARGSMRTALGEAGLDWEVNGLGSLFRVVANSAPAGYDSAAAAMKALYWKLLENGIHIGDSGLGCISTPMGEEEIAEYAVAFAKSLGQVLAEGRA
# ForI [2] = target: T1, ForI; assay: UV-vis spectrum of PLP cofactor; PMP form seen in crystal; type: biochemical; settings: amino donor half-reaction; L-Glu itself not seen in density
# ForI [3] = target: T1, ForI; assay: X-ray crystal structure, […] Å; type: binding; settings: crystals incubated with L-Glu for 20 min; non-covalent
# ForI [4] = target: T1, ForI; assay: X-ray crystal structure, […] Å; mass spectrometry; type: binding; settings: pH 8
smiles,measurement,setting,value
N[C@@H]1CONC1=O [D-cycloserine],"UV-vis, mass spectrometry and crystal structure of the adduct",ForI [1],Incubation of ForI with either D- or L-cycloserine immediately shows changes in the UV-vis spectrum
N[C@@H](CCC(=O)O)C(=O)O [L-Glu],UV-vis spectrum of PLP cofactor; PMP form seen in crystal,ForI [2],Incubating ForI with L-Glu shows a rapid change in the UV-vis spectrum
N[C@H]1CONC1=O [L-cycloserine],"UV-vis, mass spectrometry and crystal structure of the adduct",ForI [1],Incubation of ForI with either D- or L-cycloserine immediately shows changes in the UV-vis spectrum
Cc1ncc(COP(=O)(O)O)c(CN)c1O [PMP],"X-ray crystal structure, 1.56 Å",ForI [3],"the pyridoxal co-factor is unattached to the enzyme, suggesting it to be PMP"
Cc1ncc(COP(=O)(O)O)c(/C=N/OC[C@H]2NC(=O)[C@@H](CON)NC2=O)c1O [PMP–diketopiperazine from D-cycloserine],"X-ray crystal structure, 1.5 Å; mass spectrometry",ForI [4]; covalent adduct of PLP cofactor formed on incubation with 10 mM D-cycloserine,identified the formation of external aldimine PLP–diketopiperazine adducts
Cc1ncc(COP(=O)(O)O)c(/C=N/OC[C@@H]2NC(=O)[C@H](CON)NC2=O)c1O [PMP–diketopiperazine from L-cycloserine],"X-ray crystal structure, 1.5 Å; mass spectrometry",ForI [4]; covalent adduct of PLP cofactor formed on incubation with 10 mM L-cycloserine,identified the formation of external aldimine PLP–diketopiperazine adducts
